The values below come from patent publication US11358930B2, “Selective potassium channel agonists” (University of Pittsburgh—Of the Commonwealth System of …, priority 2018, dated 2022).

Experiment [1] deals with T1, Kv7.2/Kv7.3 (Homo sapiens, UniProt O43525+O43526).
T1 construct: expressed in transfected cells; host or cells: HEK293
As to the kind of experiment: Automated electrophysiology IonWorks Barracuda (IWB) agonist assay in HEK293 cells, Kv7.2/Kv7.3. The class given is cell-based. Particulars: for selectivity index SI = EC2x(Kv7.4/Kv7.5)/EC2x(Kv7.2/Kv7.3): higher SI = better selectivity for Kv7.2/Kv7.3; for EC2x at Kv7.2/Kv7.3 (agonist concentration that doubles the conductance at the voltage leading to 15% channel activation): HEK293 cells, IWB, 10-point concentration-response. How it is done:
(§1) Biological evaluation of the new analogs, including RL-81 as a positive standard was performed in the Eli Lilly Open Innovation Drug Discovery (OIDD) program (now discontinued; see https://openinnovation.lilly.com/dd/login.jsp). Ion channel agonistic potency was determined in a high-throughput assay using the automated electrophysiology IonWorks® Barracuda™ (IWB) platform (Molecular Devices, LLC) in HEK293 cells. The resulting 10-point concentration-response curves provide a measure of compound efficacy by determining the agonist concentration that doubles the conductance at the voltage leading to 15% channel activation (EC2x).
Since the primary interest was in optimizing central (Kv7.2/Kv7.3) over peripheral Kv7.4/Kv7.5) tissue activities, a selectivity index (SI) was calculated as the inverse ratio of the EC2x values for these two channel types: SI=EC2x(Kv7.4/Kv7.5)/EC2×(Kv7.2/Kv7.3) The higher the SI ratio, the better the selectivity of the agent for the Kv7.2/Kv7.3 channels.

The target of experiment [2] is T2, Kv7.4 (Homo sapiens, UniProt P56696).
T2 construct: expressed in transfected cells; host or cells: HEK293
As to the kind of experiment: Automated electrophysiology IonWorks Barracuda (IWB) agonist assay in HEK293 cells, Kv7.4. It is filed as cell-based. How it is done:
as §1
(In general: Patch clamp records ionic current or voltage across a cell membrane.)

Experiment [3] has as its target T3, Kv7.3/Kv7.5 (Homo sapiens, UniProt O43525+Q9NR82).
T3 construct: expressed in transfected cells; host or cells: HEK293
As to the kind of experiment: Automated electrophysiology IonWorks Barracuda (IWB) agonist assay in HEK293 cells, Kv7.3/Kv7.5. It is filed as cell-based. The protocol:
as §1

For experiment [4], the system named is all tested Kv7 channels. Description: Automated electrophysiology IonWorks Barracuda (IWB) agonist assay in HEK293 cells, all tested Kv7 channels. The class given is cell-based. Particulars: for activity at all Kv7 channel types (in words): HEK293 cells, IWB. How it is done:
as §1

In experiment [5] the target is T4, Kv7.4/Kv7.5 (Homo sapiens, UniProt P56696+Q9NR82).
T4 construct: expressed in transfected cells; host or cells: HEK293
Description: Automated electrophysiology IonWorks Barracuda (IWB) agonist assay in HEK293 cells, Kv7.4/Kv7.5. It is filed as cell-based. The protocol:
as §1

The target of experiment [6] is KCNQ2/3 (Homo sapiens, UniProt O43525+O43526). To be noted: read-out: EC50 (KCNQ2/3 activator); cited from earlier work.

“Also recorded” adds a separate entry of the source. A value given as a limit tells only on which side of the number the result lay.

`Nc1c(NC(=O)OC2CC2)cc(F)c(NCc2ncc(C(F)(F)F)cc2F)c1F` [RL-01, Cyclopropyl (2-amino-3,5-difluoro-4-(((3-fluoro-5-(trifluoromethyl)pyridin-2-yl)methyl)amino)phenyl)carbamate]: in experiment [1], the “selectivity / potency of 2-pyridyl analogs (in words)” value is “either low selectivity or low potency”.
Consider `CCOC(=O)Nc1ccc(NCc2cccc(S(F)(F)(F)(F)F)c2)c(F)c1N` [RL-02, Ethyl (2-amino-3-fluoro-4-((3-(pentafluoro-λ^6-sulfanyl)benzyl)amino)phenyl)carbamate], for which the “selectivity index SI = EC2x(Kv7.4/Kv7.5)/EC2x(Kv7.2/Kv7.3)” value in experiment [1] came to 1.8.
Regarding `Nc1c(F)c(NCc2ncc(C(F)(F)F)cc2F)cc(F)c1NC(=O)OC1CC1` [RL-12, Cyclopropyl (2-amino-3,6-difluoro-4-(((3-fluoro-5-(trifluoromethyl)pyridin-2-yl)methyl)amino)phenyl)carbamate], in experiment [2], the “agonist activity at Kv7.4 (in words)” value is recorded as “lacked activity”. In addition, in experiment [1], the “selectivity index SI = EC2x(Kv7.4/Kv7.5)/EC2x(Kv7.2/Kv7.3)” value is recorded as greater than 10. For the same molecule, in experiment [3], the “agonist activity at Kv7.3/Kv7.5 (in words)” value is recorded as “lacked activity”. Besides, the “agonist activity at other channels (in words)” value in experiment [4] (channels other than Kv7.2/Kv7.3) is listed as “no detectable agonist activity”. Besides, in experiment [5], the “agonist activity at Kv7.4/Kv7.5 (in words)” value was “lacked activity”.
For `CCOC(=O)Nc1ccc(NCc2ccc(C(F)(F)F)cc2F)c(F)c1N` [RL-18, Ethyl (2-amino-3-fluoro-4-((2-fluoro-4-(trifluoromethyl)benzyl)amino)phenyl)carbamate], in experiment [1], the “EC2x at Kv7.2/Kv7.3 (agonist concentration that doubles the conductance at the voltage leading to 15% channel activation)” value amounted to 0.18 ± 0.11 µM and the “selectivity index SI = EC2x(Kv7.4/Kv7.5)/EC2x(Kv7.2/Kv7.3)” value was determined as 1.7.
Take `CCOC(=O)Nc1ccc(NCc2ccc(C(F)(F)F)c(C#N)n2)c(F)c1N` [RL-23, Ethyl (2-amino-4-(((6-cyano-5-(trifluoromethyl)pyridin-2-yl)methyl)amino)-3-fluorophenyl)carbamate]: the “selectivity / potency of 2-pyridyl analogs (in words)” value in experiment [1] was “either low selectivity or low potency”.
As to `CCOC(=O)Nc1ccc(NCc2ccc(C(F)(F)F)nc2)c(F)c1N` [RL-24, Ethyl (2-amino-3-fluoro-4-(((6-(trifluoromethyl)pyridin-3-yl)methyl)amino)phenyl)carbamate], in experiment [1], the “potency compared to 2-pyridyl isomers RL-31 and RL-68 (in words)” value is “essentially equivalent potency”; the “selectivity compared to 2-pyridyl isomers RL-31 and RL-68 (in words)” value is given as “slightly increased selectivity”.
With `CCOC(=O)Nc1ccc(NCc2ccc(C(F)(F)F)cn2)c(F)c1N` [RL-31, Ethyl (2-amino-3-fluoro-4-(((5-(trifluoromethyl)pyridin-2-yl)methyl)amino)phenyl)carbamate], the “selectivity / potency of 2-pyridyl analogs (in words)” value in experiment [1] is reported as “either low selectivity or low potency”.
Take `CC(C)OC(=O)Nc1ccc(NCc2ccc(C(F)(F)F)cc2)c(F)c1N` [RL-32, Isopropyl (2-amino-3-fluoro-4-((4-(trifluoromethyl)benzyl)amino)phenyl)carbamate]: in experiment [1], the “selectivity index SI = EC2x(Kv7.4/Kv7.5)/EC2x(Kv7.2/Kv7.3)” value was 31. Moreover, the “potency at Kv7.2/Kv7.3 compared with RL-81 (more potent)” value in experiment [1] (relative to RL-81) is “slightly increased the potency”. Further, the “SI improvement over RL-81” value in experiment [1] (versus SI=0.3 of RL-81) was 100 ×. For the same molecule, the “EC2x at Kv7.4/Kv7.5” value in experiment [5] worked out at 4.98 µM.
For the molecule `Nc1c(NC(=O)OC2CC2)cc(F)c(NCc2ccc(C(F)(F)F)cc2F)c1F` [RL-36, Cyclopropyl (2-amino-3,5-difluoro-4-((2-fluoro-4-(trifluoromethyl)benzyl)amino)phenyl)carbamate], in experiment [2], the “agonist activity at Kv7.4 (in words)” value is “lacked agonist activity”. Also, the “selectivity index SI = EC2x(Kv7.4/Kv7.5)/EC2x(Kv7.2/Kv7.3)” value in experiment [1] was greater than 10. Besides, in experiment [3], the “agonist activity at Kv7.3/Kv7.5 (in words)” value was “lacked agonist activity”. The “agonist activity at Kv7.4/Kv7.5 (in words)” value in experiment [5] is listed as “lacked agonist activity”.
Turning to `Nc1c(F)c(NCc2ccc(C(F)(F)F)cc2F)cc(F)c1NC(=O)OC1CC1` [RL-46, Cyclopropyl (2-amino-3,6-difluoro-4-((2-fluoro-4-(trifluoromethyl)benzyl)amino)phenyl)carbamate], the “selectivity index SI = EC2x(Kv7.4/Kv7.5)/EC2x(Kv7.2/Kv7.3)” value in experiment [1] is recorded as greater than 7. In addition, the “activity at all Kv7 channel types (in words)” value in experiment [4] is listed as “moderately active”.
Turning to `Nc1c(F)c(NCc2ccc(C(F)(F)F)cc2F)c(F)c(F)c1NC(=O)OC1CC1` [RL-50, Cyclopropyl (2-amino-3,5,6-trifluoro-4-((2-fluoro-4-(trifluoromethyl)benzyl)amino)phenyl)carbamate], the “activity at all Kv7 channel types (in words)” value in experiment [4] was “lost all activity; also recorded: inactive”.
Take `Nc1c(NC(=O)OC2CC2)ccc(NCc2ccc(C(F)(F)F)cc2)c1F` [RL-56, Cyclopropyl (2-amino-3-fluoro-4-((4-(trifluoromethyl)benzyl)amino)phenyl)carbamate]: in experiment [1], the “EC2x at Kv7.2/Kv7.3 (agonist concentration that doubles the conductance at the voltage leading to 15% channel activation)” value turned out to be 0.11 ± 0.02 µM and the “selectivity index SI = EC2x(Kv7.4/Kv7.5)/EC2x(Kv7.2/Kv7.3)” value is recorded as 2.5. For the same molecule, the “potency at Kv7.2/Kv7.3 compared with RL-81 (more potent)” value in experiment [1] (relative to RL-81) was “ca. 3”.
For the molecule `Nc1c(NC(=O)OC2CC2)ccc(NCc2ccc(C(F)(F)F)nc2)c1F` [RL-67, Cyclopropyl (2-amino-3-fluoro-4-(((6-(trifluoromethyl)pyridin-3-yl)methyl)amino)phenyl)carbamate], in experiment [1], the “potency compared to 2-pyridyl isomers RL-31 and RL-68 (in words)” value is “essentially equivalent potency”; the “selectivity compared to 2-pyridyl isomers RL-31 and RL-68 (in words)” value is reported as “slightly increased selectivity”.
Consider `Nc1c(NC(=O)OC2CC2)ccc(NCc2ccc(C(F)(F)F)cn2)c1F` [RL-68, Cyclopropyl (2-amino-3-fluoro-4-(((5-(trifluoromethyl)pyridin-2-yl)methyl)amino)phenyl)carbamate], for which the “selectivity / potency of 2-pyridyl analogs (in words)” value in experiment [1] was “either low selectivity or low potency”.
As to `CCOC(=O)Nc1cc(F)c(NCc2ccc(C(F)(F)F)cc2)cc1N` [RL-72, Ethyl (2-amino-5-fluoro-4-((4-(trifluoromethyl)benzyl)amino)phenyl)carbamate], the “EC2x at Kv7.4” value in experiment [2] amounted to 4.65 µM. Moreover, in experiment [1], the “EC2x at Kv7.2/Kv7.3 (agonist concentration that doubles the conductance at the voltage leading to 15% channel activation)” value was 1.26 µM and the “selectivity index SI = EC2x(Kv7.4/Kv7.5)/EC2x(Kv7.2/Kv7.3)” value was greater than 7. Also, the “reduction of potency (EC2x) at Kv7.2/Kv7.3 versus RL-81” value in experiment [1] (relative to RL-81) came out at 5 fold. For the same molecule, in experiment [3], the “EC2x at Kv7.3/Kv7.5” value was greater than 10 µM. In experiment [5], the “EC2x at Kv7.4/Kv7.5” value is greater than 10 µM.
As to `CCOC(=O)Nc1ccc(NCc2cccc(C(F)(F)F)c2)c(F)c1N` [RL-73, Ethyl (2-amino-3-fluoro-4-((3-(trifluoromethyl)benzyl)amino)phenyl)carbamate], the “selectivity index SI = EC2x(Kv7.4/Kv7.5)/EC2x(Kv7.2/Kv7.3)” value in experiment [1] is on record as 4.7. For the same molecule, the “potency at Kv7.2/Kv7.3 compared with RL-81 (more potent)” value in experiment [1] (relative to RL-81) is listed as “twice as potent”.
Turning to `CCOC(=O)Nc1cc(C(F)(F)F)c(NCc2ccc(C(F)(F)F)cc2)c(F)c1N` [RL-073, Ethyl (2-amino-3-fluoro-5-(trifluoromethyl)-4-((4-(trifluoromethyl)benzyl)amino)phenyl)carbamate], the “activity at all Kv7 channel types (in words)” value in experiment [4] is “completely abrogated activity”.
Turning to `CCOC(=O)Nc1ccc(NCc2ccc(C(F)(F)F)cc2)c(F)c1N` [RL-81, Ethyl (2-amino-3-fluoro-4-((4-(trifluoromethyl)benzyl)amino)phenyl)carbamate], the EC50 in experiment [6] is 0.26 µM. The “EC2x at Kv7.4” value in experiment [2] was determined as 0.10 µM. In addition, the “selectivity index SI = EC2x(Kv7.4/Kv7.5)/EC2x(Kv7.2/Kv7.3)” value in experiment [1] stood at 0.3. Moreover, the “EC2x at Kv7.3/Kv7.5” value in experiment [3] was determined as 0.29 µM. In addition, in experiment [4] (at all tested Kv7 channels), the “efficacy versus flupirtine (FP), times higher” value is on record as 8-50 times and the “efficacy versus retigabine (RG), in words” value is listed as “comparable”.
With `CCOC(=O)Nc1ccc(NCc2ccc(F)cc2)nc1N` [flupirtine, reference compound], the EC50 in experiment [6] is 2 µM. Also, the “selectivity index SI = EC2x(Kv7.4/Kv7.5)/EC2x(Kv7.2/Kv7.3)” value in experiment [1] is 1.8.
Consider `CCOC(=O)Nc1ccc(NCc2ccc(F)cc2)cc1N` [retigabine], for which, in experiment [6], the EC50 is 0.33 µM.
